# Test results as given in patent publication US20250161312A1, “A METHOD FOR THE TREATMENT OF CHEMOTHERAPEUTIC DRUG-INDUCED NEPHROTOXICITY” (INSTITUT NATIONAL DE LA SANTÉ ET DE LA RECHERCHE MÉDICALE, priority 2022, published 2025).
# What was measured:
# [1] = tested on: C57BL6/J mice; test: Sub-chronic cisplatin-induced kidney injury model; type: in vivo
# Method: (§1) FIG. 1. Schematic representation of the different animal procedures. (A) Acute cisplatin-induced kidney injury. […] (B) Sub-chronic cisplatin-induced kidney injury. […] (C) KW-6002 administration schedule in the acute model. […] (D) KW-6002 administration schedule in the sub-chronic model.
# Animal experiments were adapted from 63-64. Animal procedures were performed in 8 to 10 weeks old male C57B16/J mice (Janvier Labs). Mice were fed a laboratory standard diet with water and food ad libitum and were kept under constant environmental conditions with a 12-hour light-dark cycle. Istradefylline (KW-6002; Tocris) was dissolved in a carrier solution consisting in 15% DMSO, 15% cremophor (Sigma), 70% saline solution (vehicle). Cisplatin (Accord Healthcare) was dissolved in saline solution. […] Three days after this single injection, animals were sacrificed by cervical dislocation (FIG. 1A).
# (§2) Prior sacrifice by cervical dislocation, retro-orbital blood samples were collected in heparinized tubes and centrifuged for 10 min at 2000 rpm at room temperature. Renal function was assessed by Blood urea nitrogen (BUN) measurement using a AU480 Chemistry Analyzer (Beckman Coulter). At the time of sacrifice, kidneys or LLC1 tumors were harvested and stored in either “RNA later” solution (Thermo Fisher), 4% neutral buffered formalin or snap-frozen in liquid nitrogen.
# Formalin-fixed and paraffin-embedded sections (3 μm thick) were stained with Hematoxylin and Eosin (Sigma Aldrich) or Periodic Acid-Schiff (Sigma-Aldrich). Slices were scored by a nephropathologist in a blinded manner. A kidney injury score grading scale from 0 to 5 was used to assess the severity of the injury as follow: 0=no lesions, 1=minimal injury characterized by occurrence of necrosis and debris; 2=mild injury with single cell necrosis, pyknotic cells, and apoptosis; 3=moderate injury characterized by tubular distension, vacuolation, and some cellular debris, 4=severe injury with occasional hyaline casts observed, patchy epithelial necrosis in all segments, loss of epithelial lining; and 5=very severe injury characterized by extensive tubular epithelial necrosis in all segments, loss of epithelial layer from many tubules widespread intraluminal cellular debris, and frequent hyaline casts particularly prominent in the medullary region (67).
# Total RNA from kidney samples was extracted with phenol/chloroform and subsequently precipitated in isopropanol as described previously (71). Total RNA from cultured renal cells was extracted using RNeasy Mini kit (Qiagen) following manufacturer's recommendations.
# (§3) Reverse transcription was performed on 1 μg of RNA using high-capacity cDNA reverse transcription kit (Thermo Fisher), according the manufacturer's recommendation. Real time PCR was performed on a StepOne device using Taqman Gene Expression Master Mix (Thermo Fisher), following manufacturer's recommendations. […]
# [2] = tested on: LLC1 tumors in C57BL6/J mice; test: LLC1 in vivo tumor model (syngeneic, sub-chronic cisplatin)
# Method: as §1
# LLC1 cells (Lewis Lung Cancer cells, ATCC® CRL-1642™) were cultured in DMEM with 10% fetal calf serum and penicillin-streptomycin. LLC1 cells ([…]) in PBS: matrigel (1:1, for a total volume of 100 μL) were subcutaneously injected in the right flank of animals. Tumors were measured twice a week with calipers and their volumes were estimated using the following equation: ½ (length×width2).
# as §2
# Paraffin-embedded sections (3 μm thick) were deparaffinized with xylene and rehydrated in successive ethanol dilutions. Then, antigen retrieval was done by incubation in sub-boiling 10 mM sodium citrate buffer. Tissues were permeabilized in a 0.4% Triton X-100 solution, and nonspecific binding was blocked with a 5% BSA solution in TBS for 2 hours. Sections were then incubated overnight with an anti-γH2AX antibodies (1:50; no. 9718, Cell Signaling Technology). After washing, the secondary antibody (A10042) was incubated for 45 minutes at room temperature. Again, after washing, the nuclei were stained with a 300 nM DAPI solution (D1306, Life Technologies, Thermo Fisher Scientific). The slides were analyzed using a Zeiss LSM 880 confocal microscope. Quantification was performed using ImageJ. For immunofluorescence studies in free-floating sections, mice were deeply anesthetized with pentobarbital sodium (50 mg/kg, i.p.) and then transcardially perfused with cold NaCl (0.9%) and 4% paraformaldehyde in PBS (pH 7.4). Kidneys were removed, post-fixed for 24 hours in 4% paraformaldehyde, and cryoprotected in 30% sucrose before being frozen at −40° C. in isopentane (methyl-butane) and stored at −80° C. Longitudinal kidney sections (40 μm) were obtained using a Leica cryostat. Free-floating sections were stored in PBSazide (0.2%) at 4° C. Longitudinal kidney sections were incubated with a donkey serum (D9663, MilliporeSigma) at 10% in PBS Triton X-100 (0.2%) for 1 hour and then incubated with anti-A2AR primary antibody (1:50; GP-Af1000, Frontiers Institute) for 72 hours at 4° C. in Signal Boost (8114, Cell Signaling Technology). Alexa Fluor 568-conjugated secondary antibodies (1:500; Life Technologies, Thermo Fisher Scientific) were incubated overnight at room temperature. Lectin staining was performed by incubating sections for 1 hour at room temperature with Lotus tetragonolobus FITC conjugate (Vector Laboratories, FL-1321-2) diluted to 2 μg/mL in blocking medium. Sections were counterstained with DAPI (1:5,000; no. 62247, Thermo Fisher Scientific) and mounted on superfrost slides and left to dry. Then, they were covered with Vectashield Vibrance Antifade Mounting Medium (H-1700, Vector Laboratories). Images were acquired using a Zeiss LSM 710 confocal laser-scanning microscope at ×20 magnification. 3D reconstruction of confocal image stacks was performed using Imaris software (Bitplane).
# as §3
# [3] = tested on: mEERL tumors in C57B16/J mice; test: mEERL in vivo tumor model (HPV+ squamous carcinoma)
# Method: FIG. 8. […] The arrow represents cisplatin and/or PBS injection. […] (E) Absolute tumor sizes in animals in the different groups.
# We used a validated murine model of HPV+ oropharyngeal squamous cell carcinoma as previously described (noncommercial) (77). This model consists of oropharyngeal epithelial cells from C57Bl/6 male mice that stably express the HPV16 viral oncogenes E6 and E7, H-Ras, and luciferase (mEERL cells). mEERL cells were grown in a T75 flask until confluent, after which cells were trypsinized and harvested, washed 3 times with sterile PBS, and resuspended in 1 mL sterile PBS to the appropriate concentration. Mice were injected s.c. into the right flank with 20 μL solution containing either 1,000,000 mEERL cells or PBS (vehicle). The day of mEERL cell injection is indicated as day −14. Tumor volume was monitored using Vernier digital calipers.
smiles,measurement,setting,value
"CCn1c(=O)c2c(nc(/C=C/c3ccc(OC)c(OC)c3)n2C)n(CC)c1=O [KW-6002, 8-[(E)-2-(3,4-dimethoxyphenyl)vinyl]-1,3-diethyl-7-methyl-3,7-dihydro-1H-purine-2,6-dione]",histological lesions (histological score of renal injury),"[1]; SC model, FIG. 2H",less severe histological lesions
same,mRNA levels of Tnfα,"[1]; SC model, FIG. 2K, figure not given",lower mRNA levels of Tnfα
same,"mRNA levels of I16, change vs. cisplatin","[1]; SC model, kidney",−77.5±5.6%
same,reduction of KIM-1 expression vs. cisplatin,"[1]; SC model, kidney mRNA",−79.5±3.8%
same,reduction of NGAL expression vs. cisplatin,"[1]; SC model, kidney mRNA",−82.9±1.4%
same,reduction of BUN vs. cisplatin,"[1]; SC model: cisplatin 3 mg/kg i.p. six days, KW-6002 3 mg/kg i.p. daily day-5 to day 7",−70.2±5.1%
same,cisplatin-induced increase in expression of Nrf2,"[1]; in vivo, subchronic model, FIG. 6D",normalized
same,cisplatin-induced increase in expression of HO1,"[1]; in vivo, subchronic model, FIG. 6E",normalized
same,effect on platinum accumulation in kidneys,"[1]; independent experiment, animals of FIGS. 2G-2L",replicated
same,cisplatin accumulation (platinum levels) in the kidney,"[2]; KW-6002-treated mice, FIG. 4A",lowered
same,cisplatin accumulation (platinum levels) in the tumors,"[2]; KW-6002-treated mice, FIG. 4B",remained unchanged
same,anti-tumoral response to cisplatin (tumor size),"[2]; co-treatment with cisplatin, FIG. 3",did not compromise the anti-tumoral response to cisplatin
same,"cisplatin-induced DNA damage, H2AX+ cells in tumors",[2]; in vivo LLC1 syngeneic model,increased number of H2AX+ cells
same,expression of some efflux transporters in kidneys,"[2]; qPCR, FIG. 4A",significantly increased
same,transporter expression in tumors,"[2]; qPCR, FIG. 4B",no expression changes
same,ability to protect from cisplatin-induced kidney injury,[2]; tumor-bearing mice,preserved
same,cisplatin-induced pain hypersensitivity (von Frey),[3]; FIG. 8D,alleviated cisplatin-induced pain hypersensitivity
same,tumor control by cisplatin (tumor size),[3]; FIG. 8E,significantly potentiated tumor control by cisplatin
same,indicators of renal toxicity (KIM-1) induced by cisplatin,"[3]; tumor-bearing mice, FIG. 8A",limited
same,expression of Tnf induced by cisplatin,"[3]; tumor-bearing mice, FIG. 8B",limited
same,expression of I16 induced by cisplatin,"[3]; tumor-bearing mice, FIG. 8C",limited
